Laboratory results from ChEMBL document CHEMBL3351833, “Synthesis and Biological Evaluation of Pyrazolo[1,5-a]pyrimidine Compounds as Potent and Selective Pim-1 Inhibitors” (ACS Med Chem Lett, 2015).

Columns and labels:
[1] = target: Serine/threonine-protein kinase pim-2 (Homo sapiens, UniProt Q9P1W9); experiment: Inhibition of Pim2 (unknown origin) using luciferase-luciferin based ATP detection reagent by Kinase-Glo assay; details: read-out: IC50
[2] = target: Voltage-gated inwardly rectifying potassium channel KCNH2 (Homo sapiens, UniProt Q12809); experiment: Inhibition of human ERG expressed in CHO cells by automated patch clamp method; format: cell-based
[3] = target: T1, Receptor-type tyrosine-protein kinase FLT3 (Homo sapiens, UniProt P36888); experiment: Inhibition of human Flt3 (unknown origin)
T1 sequence (P36888 whole entry): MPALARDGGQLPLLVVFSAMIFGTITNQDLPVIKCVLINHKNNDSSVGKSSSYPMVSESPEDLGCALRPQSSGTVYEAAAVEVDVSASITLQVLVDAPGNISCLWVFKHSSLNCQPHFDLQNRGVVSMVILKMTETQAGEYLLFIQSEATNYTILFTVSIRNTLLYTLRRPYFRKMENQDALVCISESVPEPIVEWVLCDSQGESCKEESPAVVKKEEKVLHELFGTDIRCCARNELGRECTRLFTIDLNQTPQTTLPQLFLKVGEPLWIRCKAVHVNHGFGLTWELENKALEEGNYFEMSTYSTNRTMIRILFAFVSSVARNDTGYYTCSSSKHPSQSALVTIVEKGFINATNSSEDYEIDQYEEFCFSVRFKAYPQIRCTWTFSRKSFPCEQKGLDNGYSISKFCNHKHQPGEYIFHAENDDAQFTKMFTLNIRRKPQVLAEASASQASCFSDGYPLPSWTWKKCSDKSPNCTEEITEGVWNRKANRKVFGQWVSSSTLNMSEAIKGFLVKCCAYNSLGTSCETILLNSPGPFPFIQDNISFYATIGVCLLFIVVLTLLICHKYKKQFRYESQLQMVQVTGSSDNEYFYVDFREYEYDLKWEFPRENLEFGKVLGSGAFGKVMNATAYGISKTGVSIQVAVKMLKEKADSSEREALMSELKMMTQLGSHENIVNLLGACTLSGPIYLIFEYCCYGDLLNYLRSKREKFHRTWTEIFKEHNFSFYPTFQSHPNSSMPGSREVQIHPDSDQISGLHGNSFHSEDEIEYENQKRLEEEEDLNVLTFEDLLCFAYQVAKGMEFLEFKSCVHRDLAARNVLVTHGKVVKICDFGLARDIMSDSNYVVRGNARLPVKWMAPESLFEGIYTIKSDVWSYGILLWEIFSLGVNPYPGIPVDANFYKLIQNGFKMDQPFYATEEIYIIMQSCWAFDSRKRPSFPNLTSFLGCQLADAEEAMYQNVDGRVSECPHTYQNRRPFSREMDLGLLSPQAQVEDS

[4] = target: Serine/threonine-protein kinase pim-1 (Homo sapiens, UniProt P11309); experiment: Inhibition of Pim1 (unknown origin) using luciferase-luciferin based ATP detection reagent by Kinase-Glo assay; details: read-out: IC50
Serine/threonine-protein kinase pim-1, sequence (P11309 whole entry): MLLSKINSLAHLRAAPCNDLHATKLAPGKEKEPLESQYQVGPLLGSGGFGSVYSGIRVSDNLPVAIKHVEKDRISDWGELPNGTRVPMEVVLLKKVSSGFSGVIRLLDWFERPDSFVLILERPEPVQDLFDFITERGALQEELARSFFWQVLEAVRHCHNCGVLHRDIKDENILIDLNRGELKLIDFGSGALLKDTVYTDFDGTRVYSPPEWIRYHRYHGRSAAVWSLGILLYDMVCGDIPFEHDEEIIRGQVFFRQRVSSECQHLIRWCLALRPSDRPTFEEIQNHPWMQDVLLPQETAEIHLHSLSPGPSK

Serine/threonine-protein kinase pim-2, sequence (Q9P1W9 whole entry): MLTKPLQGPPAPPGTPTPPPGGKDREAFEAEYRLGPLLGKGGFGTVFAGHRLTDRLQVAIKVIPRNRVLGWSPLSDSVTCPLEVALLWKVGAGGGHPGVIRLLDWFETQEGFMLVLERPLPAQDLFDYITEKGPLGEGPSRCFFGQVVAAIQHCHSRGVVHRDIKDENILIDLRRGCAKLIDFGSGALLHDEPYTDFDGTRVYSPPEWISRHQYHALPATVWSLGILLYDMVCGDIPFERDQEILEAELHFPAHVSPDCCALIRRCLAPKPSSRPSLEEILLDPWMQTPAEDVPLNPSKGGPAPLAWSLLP
Voltage-gated inwardly rectifying potassium channel KCNH2, sequence (Q12809 whole entry): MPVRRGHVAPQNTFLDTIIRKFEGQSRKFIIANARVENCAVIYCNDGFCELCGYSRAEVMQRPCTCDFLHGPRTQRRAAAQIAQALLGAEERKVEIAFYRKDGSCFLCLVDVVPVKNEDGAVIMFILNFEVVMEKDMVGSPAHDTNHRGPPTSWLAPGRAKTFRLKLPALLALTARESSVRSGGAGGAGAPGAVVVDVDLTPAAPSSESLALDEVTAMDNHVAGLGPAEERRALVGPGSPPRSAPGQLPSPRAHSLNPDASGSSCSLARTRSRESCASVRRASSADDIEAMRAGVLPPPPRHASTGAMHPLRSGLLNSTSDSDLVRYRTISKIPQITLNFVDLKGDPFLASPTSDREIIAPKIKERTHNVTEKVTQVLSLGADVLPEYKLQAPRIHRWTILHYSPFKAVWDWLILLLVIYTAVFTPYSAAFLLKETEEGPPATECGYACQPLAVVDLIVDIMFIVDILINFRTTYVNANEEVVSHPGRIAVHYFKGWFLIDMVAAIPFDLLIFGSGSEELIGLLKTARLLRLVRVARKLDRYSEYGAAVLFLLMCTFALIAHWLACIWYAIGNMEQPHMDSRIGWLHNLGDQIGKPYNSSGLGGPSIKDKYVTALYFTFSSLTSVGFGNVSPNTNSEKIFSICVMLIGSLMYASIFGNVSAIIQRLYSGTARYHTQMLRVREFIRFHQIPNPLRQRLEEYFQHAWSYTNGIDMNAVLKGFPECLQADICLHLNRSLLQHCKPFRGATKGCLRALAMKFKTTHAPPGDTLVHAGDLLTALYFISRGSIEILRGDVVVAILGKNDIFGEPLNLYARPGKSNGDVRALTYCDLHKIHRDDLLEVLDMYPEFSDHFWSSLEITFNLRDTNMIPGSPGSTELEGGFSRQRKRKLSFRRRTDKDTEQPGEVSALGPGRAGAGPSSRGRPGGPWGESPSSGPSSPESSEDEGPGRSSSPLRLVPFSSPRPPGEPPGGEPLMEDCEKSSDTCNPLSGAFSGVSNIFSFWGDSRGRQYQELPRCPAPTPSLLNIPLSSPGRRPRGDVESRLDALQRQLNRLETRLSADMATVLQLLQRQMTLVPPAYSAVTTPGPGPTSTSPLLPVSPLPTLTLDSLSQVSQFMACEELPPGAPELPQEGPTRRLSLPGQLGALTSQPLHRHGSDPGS

IC50 [1]	Compound	also measured
987 nM	N[C@H]1CCCN(c2ccn3ncc(-c4cccc(OC(F)(F)F)c4)c3n2)C1	–
8160 nM	O=S1(=O)CCC(CNc2ccn3ncc(-c4cccc(OC(F)(F)F)c4)c3n2)CC1	–
1490 nM	CN1CCC(CNc2ccn3ncc(-c4cccc(OC(F)(F)F)c4)c3n2)CC1	–
525 nM	CC(C)(O)[C@H]1CC[C@H](Nc2ccn3ncc(-c4cccc(C(F)(F)F)c4)c3n2)CC1	IC50 [2]: > 30 µM; IC50 [3]: 271 nM
100 nM	N[C@H]1CC[C@H](Nc2ccn3ncc(-c4cccc(OC(F)(F)F)c4)c3n2)CC1	–
3620 nM	CO[C@H]1CC[C@H](Nc2ccn3ncc(-c4cccc(OC(F)(F)F)c4)c3n2)CC1	–
564 nM	O=C1CCN(c2ccn3ncc(-c4cccc(Cl)c4)c3n2)CC1	IC50 [4]: 168 nM
1020 nM	CO[C@H]1CC[C@H](Nc2ccn3ncc(-c4cccc(Cl)c4)c3n2)CC1	–
269 nM	O[C@H]1CC[C@H](Nc2ccn3ncc(-c4cccc(OC(F)(F)F)c4)c3n2)CC1	IC50 [3]: 157 nM
4090 nM	CC(C)(O)[C@H]1CC[C@H](Nc2ccn3ncc(-c4cccc(OC(F)(F)F)c4)c3n2)CC1	–
4660 nM	CO[C@H]1CC[C@H](Nc2ccn3ncc(-c4cccc(C(F)(F)F)c4)c3n2)CC1	–
3730 nM	FC(F)(F)Oc1cccc(-c2cnn3ccc(NCC4CCOCC4)nc23)c1	IC50 [4]: 633 nM
2040 nM	C[C@]1(O)CC[C@H](Nc2ccn3ncc(-c4cccc(OC(F)(F)F)c4)c3n2)CC1	–
